30 compounds from US8940314B2, “Repellent to insects harmful to a plant and method for repelling the same” (Riken, priority 2004, dated 2015) can be followed below.

Type in all cases: in vivo
The test system of one assay is greenhouse whitefly. Nature of the assay: Repelling effect on greenhouse whitefly, treated common bean seed leaves. The conditions noted are these: ingredient 80 parts + auxiliary A 20 parts, 200 mg/100 ml water, 3 days at 22 to 30° C., number of adult insects vs distilled water area. On the procedure: Main ingredients (80 parts by mass) and auxiliary A (polyoxyethylene (5) monododecyl ether) (20 parts by mass) listed in Table 1 were mixed to prepare a sample of the repellent of the present invention.
(§1) The repellent was diluted with water to 200 mg/100 ml which was then applied to seed leaves of common bean (variety: Taisho Kintoki). As control samples, auxiliary A alone and distilled water were used. After drying, the plant was maintained at 22 to 30° C. for 3 days in an isolated room in which adult greenhouse whiteflies were grown and the number of adult insects that came flying was counted with time. A repelling ratio was determined according to the following formula. Repelling ratio (%)=100×[1−(the number of adult insects in the repellent applied area)/(the number of adult insects in the distilled water applied area)]

The test system of the next assay is silverleaf whitefly. Nature of the assay: Repelling effect on silverleaf whitefly, treated cucumber seed leaves. The conditions noted are these: ingredient 80 parts + auxiliary B 20 parts, 200 mg/100 ml water, 3 days at 22 to 30° C., number of adult insects vs distilled water area. On the procedure: (§2) (polyoxyethylene phenyl ether+dodecylbenzenesulufonate): soybean oil (1:1:1) (20 parts by mass) listed in Table 2 were mixed to prepare a sample of the repellent of the present invention. The repellent was diluted with water to 200 mg/100 ml which was then applied to seed leaves of cucumber (variety: Sagami Hanjiro). As control samples, auxiliary B alone and distilled water were used. After drying, the plant was maintained at 22 to 30° C. for 3 days in an isolated room in which adult silverleaf whiteflies were grown and the number of adult insects that came flying was counted with time. A repelling ratio was determined according to the following formula.

The next assay has as its system green peach aphid. Nature of the assay: Repelling effect on green peach aphid, treated eggplant seed leaves. As to conditions: ingredient 80 parts + auxiliary B 20 parts, 200 mg/100 ml water, 7 days at 22 to 30° C., number of adult insects vs distilled water area. The method, then:
as §2, with “oil (1:1:1))” for “oil (1:1:1)”, “Table 4” for “Table 2”, “of eggplant” for “of cucumber”, “(variety: Senryo No. 2).” for “(variety: Sagami Hanjiro).”, “for 7” for “for 3”, “which green peach aphid” for “which adult silverleaf whiteflies”

Another assay relates to cotton aphid. Nature of the assay: Repelling effect on cotton aphid, treated cucumber true leaves. The conditions noted are these: ingredient 80 parts + auxiliary A 20 parts, 200 mg/100 ml water, 7 days at 22 to 30° C., number of adult insects vs distilled water area. The method, then:
Main ingredients (80 parts by mass) and auxiliary A (polyoxyethylene (5) monododecyl ether) (20 parts by mass) listed in Table 3 were mixed to prepare a sample of the repellent of the present invention.
as §1, with “to true” for “to seed”, “of cucumber” for “of common bean”, “(variety: Sagami Hanjiro at 0.7 leaf stage).” for “(variety: Taisho Kintoki).”, “for 7” for “for 3”, “which cotton aphid” for “which adult greenhouse whiteflies”

Another assay relates to Thrips palmi Karny. Briefly: Repelling effect on Thrips palmi Karny, insect damage on treated eggplant true leaves. As to conditions: ingredient 80 parts + auxiliary B 20 parts, 200 mg/100 ml water, 10 days at 22 to 30° C., total degree of insect damage vs distilled water area. On the procedure: The same procedures in Example 5 were repeated to prepare the repellent except that auxiliary B (diglycerin monooleate : (polyoxyethylene phenyl ether+dodecylbenzenesulufonate): soybean oil (1:1:1)) was used in place of auxiliary A.
(§3) The repellent was diluted with water to 200 mg/100 ml which was then applied to true leaves of eggplant (variety: Senryo No. 2 at 3.5 leaf stage). As control samples, auxiliary B alone and distilled water were used. After drying, the plant was maintained at 22 to 30° C. for 10 days in an isolated room in which adult Thrips palmi Karny were grown and the degree of insect damage (the number of insect damage spots) was observed and were totaled based on the criteria: 0 for no damage, 1 for very slight damage, 3 for slight damage, 5 for remarkable damage and 10 for serious damage. A repelling ratio was determined according to the following formula. Repelling ratio (%)=100×[1−(the total degree of insect damage in the repellent applied area)/(the total degree of insect damage in the distilled water applied area)]

Another assay relates to western flower thrips. Nature of the assay: Repelling effect on western flower thrips, insect damage on treated eggplant true leaves. As to conditions: ingredient 80 parts + auxiliary A 20 parts, 200 mg/100 ml water, 10 days at 22 to 30° C., total degree of insect damage vs distilled water area. The method, then:
as §3, with “Main ingredients (80 parts by mass) and auxiliary A (polyoxyethylene (5) monododecyl ether) (20 parts by mass) listed in Table 5 were mixed to prepare a sample of the repellent of the present invention. The” for “The”, “A” for “B”, “western flower thrips” for “Thrips palmi Karny”, “formula.” for “formula. Repelling ratio (%)=100×[1−(the total degree of insect damage in the repellent applied area)/(the total degree of insect damage in the distilled water applied area)]”

`CCCCCCCCCC(=O)O` [1-18, n-capric acid]: the “Repelling ratio (%)” value in the assay on greenhouse whitefly stood at 90%; with silverleaf whitefly, 86%; with green peach aphid, 68%; with cotton aphid it was 76%.
With `CCCCCCCC/C=C\CCCCCCCC(=O)O` [1-19, oleic acid], the “Repelling ratio (%)” value in the assay on greenhouse whitefly turned out to be 84%; with silverleaf whitefly, 68%; in the assay on Thrips palmi Karny, 69%; in the assay on western flower thrips, 76%; in the assay on green peach aphid it was 70%; in the assay on cotton aphid it was 70%.
In the case of `CC(C)CCCCCCCCCCCCCCC(=O)O` [1-20, isostearic acid], the “Repelling ratio (%)” value in the assay with greenhouse whitefly is given as 72%; in the assay with silverleaf whitefly, 65%.
In the case of `OC[C@@H](O)[C@H]1OC[C@H](O)[C@H]1O` [1-21, sorbitan], the “Repelling ratio (%)” value is listed as 74% in the assay with greenhouse whitefly, 67% with silverleaf whitefly, 62% in the assay on green peach aphid and 68% with cotton aphid.
As for `CCCCCCCCCCCC(=O)OCC(COC(=O)CCCCCCCCCCC)OC(=O)CCCCCCCCCCC` [5-22, glycerin trilaurate], the figures for the “Repelling ratio (%)” value in the assay with Thrips palmi Karny and in the assay with western flower thrips were 90% and 82%, respectively.
For `OC[C@@H](O)[C@@H](O)[C@H](O)[C@@H](O)CO` [5-23, sorbitol], in that order: 55% and 61%.
On to “citric acid unsaturated fatty acid monoglyceride [1-7]”, for which the “Repelling ratio (%)” value in the assay with greenhouse whitefly came out at 73%; with silverleaf whitefly, 71%; with green peach aphid it was 81%; with cotton aphid it was 92%.
With decaglycerin laurate [1-9], the “Repelling ratio (%)” value in the assay with greenhouse whitefly was found to be 80%; with silverleaf whitefly, 70%; in the assay with green peach aphid it was 83%; in the assay with cotton aphid, 90%.
On to decaglycerin oleate [1-8], for which the “Repelling ratio (%)” value in the assay with greenhouse whitefly amounted to 76%; with silverleaf whitefly, 75%; in the assay with green peach aphid, 78%; with cotton aphid it was 95%.
In the case of decaglycerin stearate [5-7], the “Repelling ratio (%)” value is given as 70% in the assay with Thrips palmi Karny and 77% in the assay with western flower thrips.
Consider diglycerin monostearate [5-5], for which the “Repelling ratio (%)” value in the assay on Thrips palmi Karny was determined as 55%; with western flower thrips it was 60%.
Consider glycerin diacetomonolaurate [1-6], for which the “Repelling ratio (%)” value in the assay on greenhouse whitefly is on record as 96%; in the assay on silverleaf whitefly it was 94%; in the assay on green peach aphid, 77%; in the assay on cotton aphid, 82%.
On to glycerin monoacetomonostearate [5-8], for which the “Repelling ratio (%)” value is 55% in the assay on Thrips palmi Karny and 68% in the assay with western flower thrips.
For the compound glycerin monocaprylate [1-1], the “Repelling ratio (%)” value in the assay on greenhouse whitefly turned out to be 82%; in the assay on silverleaf whitefly it was 73%; in the assay with green peach aphid, 76%; in the assay with cotton aphid, 88%.
As for glycerin monolaurate [5-1], the “Repelling ratio (%)” value in the assay with Thrips palmi Karny worked out at 65%; with western flower thrips it was 62%.
Consider glycerin monooleate [1-2], for which the “Repelling ratio (%)” value in the assay with greenhouse whitefly is reported as 82%; with silverleaf whitefly it was 70%; in the assay on green peach aphid, 81%; with cotton aphid, 85%.
Consider glycerin monopalmitate [5-3], for which the “Repelling ratio (%)” value is recorded as 71% in the assay with Thrips palmi Karny and 68% with western flower thrips.
Take glycerin monostearate [5-2]: the “Repelling ratio (%)” value was found to be 62% in the assay with Thrips palmi Karny and 58% in the assay on western flower thrips.
The corresponding values for poly (2-3) glycerin oleate [5-6] are 68% and 58%.
Take “polyoxyethylene (5) monododecyl ether [1-23, reference compound]”: the results for the “Repelling ratio (%)” value with greenhouse whitefly, in the assay on western flower thrips and in the assay on cotton aphid were 5%, 8% and 3%, respectively.
With polyoxyethylene (20) sorbitan [5-13], the “Repelling ratio (%)” value stood at 54% with Thrips palmi Karny and 68% with western flower thrips.
With polyoxyethylene (40) sorbitan [1-15], the “Repelling ratio (%)” value is recorded as 70% with greenhouse whitefly; 85% in the assay on silverleaf whitefly; 69% with Thrips palmi Karny; 75% with western flower thrips; 82% with green peach aphid; 75% in the assay on cotton aphid.
polyoxyethylene (60) sorbitan [1-16]: the “Repelling ratio (%)” value with greenhouse whitefly came out at 73%; with silverleaf whitefly, 77%; with green peach aphid, 80%; in the assay on cotton aphid, 78%.
Regarding propylene glycol monooleate [1-10], the “Repelling ratio (%)” value in the assay with greenhouse whitefly is reported as 82%; in the assay with silverleaf whitefly it was 73%; in the assay on Thrips palmi Karny it was 81%; in the assay with western flower thrips, 80%; in the assay with green peach aphid it was 76%; in the assay on cotton aphid, 82%.
sorbitan laurate [1-4]: the “Repelling ratio (%)” value is given as 92% with greenhouse whitefly; 92% with silverleaf whitefly; 63% in the assay on Thrips palmi Karny; 53% in the assay with western flower thrips; 82% in the assay on green peach aphid; 96% with cotton aphid.
sorbitan oleate [1-5]: the “Repelling ratio (%)” value stood at 80% with greenhouse whitefly, 75% in the assay with silverleaf whitefly, 85% in the assay on green peach aphid and 93% with cotton aphid.
As for sorbitan palmitate [5-11], the “Repelling ratio (%)” value with Thrips palmi Karny was found to be 73%; in the assay with western flower thrips it was 72%.
Turning to “succinic acid saturated acid monoglyceride [5-9]”, the “Repelling ratio (%)” value in the assay with Thrips palmi Karny was 71%; with western flower thrips, 70%.
For “sucrose fatty acid ester (laurate) [5-25]”, in that order: 68% and 55%.
For “sucrose fatty acid ester (oleate) [5-24]”, in that order: 62% and 58%.
